Data from article PMC11802738 (Nature Communications, 2025).

Experiments:
[1] = target: T1, RgNanH (GRAB-Sia3 = RgNanH D282A) (Mediterraneibacter gnavus, UniProt A7B557, D282A); assay: isothermal titration calorimetry; format: binding; conditions: PBS; 50 μM protein in cell, 1 mM ligand in syringe; monomeric GRAB-Sia3
T1 sequence (A7B557 243-723 D282A): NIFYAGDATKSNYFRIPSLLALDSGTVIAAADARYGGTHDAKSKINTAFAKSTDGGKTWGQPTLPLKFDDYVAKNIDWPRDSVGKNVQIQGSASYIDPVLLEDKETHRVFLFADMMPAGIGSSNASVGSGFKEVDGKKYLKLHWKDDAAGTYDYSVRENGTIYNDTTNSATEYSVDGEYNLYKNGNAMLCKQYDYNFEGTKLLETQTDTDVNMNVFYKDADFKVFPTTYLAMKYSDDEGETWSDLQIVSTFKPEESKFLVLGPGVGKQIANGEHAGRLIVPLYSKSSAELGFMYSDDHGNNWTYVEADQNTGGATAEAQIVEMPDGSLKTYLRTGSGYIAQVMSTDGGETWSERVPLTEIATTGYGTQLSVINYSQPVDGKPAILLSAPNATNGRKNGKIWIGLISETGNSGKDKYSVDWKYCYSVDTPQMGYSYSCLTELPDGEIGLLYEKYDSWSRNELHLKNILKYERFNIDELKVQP

[2] = target: SpNanA (GRAB-Sia = SpNanA D372N) (Streptococcus pneumoniae, UniProt P62576, D372N); conditions: PBS; 50 μM protein in cell, 1 mM ligand in syringe; monomeric GRAB-Sia

SMILES | Kd [1] | Kd [2]
CC(=O)N[C@H]1[C@H]([C@H](O)[C@H](O)CO)O[C@@](O[C@H]2[C@@H](O)[C@@H](CO)O[C@@H](O[C@H]3[C@H](O)[C@@H](O)C(O)O[C@@H]3CO)[C@@H]2O)(C(=O)O)C[C@@H]1O (stereo partly drawn) [3′SL] | 7.15 µM | 17.8 µM
CC(=O)N[C@H]1[C@H]([C@H](O)[C@H](O)CO)O[C@@](OC[C@H]2O[C@@H](O[C@H]3[C@H](O)[C@@H](O)C(O)O[C@@H]3CO)[C@H](O)[C@@H](O)[C@H]2O)(C(=O)O)C[C@@H]1O (stereo partly drawn) [6′SL] | – | 19.1 µM
